# Experimental data: US12491227B2, “Crila® and EGCG compositions for treatment of fibroids” (Altin Biosciences Corporation, priority 2022, dated 2025)
# Experiments:
# [1] = system: Human uterine leiomyoma (HuLM) cells; assay: MTT cell proliferation / viability assay in HuLM cells; type: cell-based; conditions: EGCG alone
# Method: Effect of Crila® or a Crila® composition (Table 1) and/or EGCG on the Uterine Fibroid Growth: In one study, we used Human Leiomyoma (HuLM) Cells in our initial evaluation of Crila® and/or EGCG treatment. Crila®, used alone or in combination with EGCG, were evaluated for their ability to inhibit the proliferation of HuLM cells in an experimental approach as described below. Similarly, the Crila® compositions are evaluated for their ability to inhibit the proliferation of HuLM cells in an experimental approach as described below. Crila® and/or EGCG were analyzed at the various concentrations and time points specified. […] Thereafter, the extract was sterile filtered through 0.22 μm PES filter and stored at room temperature until further use. EGCG was dissolved in DMSO to make a 100 mM stock solution or in dH2O to make 10 mM stock solution. Cell proliferation assay was performed by dimethylthiazolyl diphenyltetrazolium bromide (MTT) assay. Human uterine leiomyoma (HuLM) cells were cultured in DMEM/F12 containing 10% fetal bovine serum. […] Samples were measured (from the treated wells and control wells) after 1 to 2 days, 3 days, 5 days and 7 days. […] Relative cell viability was determined by using the MTT assay. […] Absorbance was measured in Varioskan Lux microplate reader (ThermoFisher) at 570 nm. […]
# fibroid tumor = conditions: nude mouse model; cited from earlier work
# [2] = biological target: T1, Catechol-O-methyl transferase (COMT) (Homo sapiens, UniProt P21964); conditions: cited from earlier work
# T1 sequence (P21964 1-271): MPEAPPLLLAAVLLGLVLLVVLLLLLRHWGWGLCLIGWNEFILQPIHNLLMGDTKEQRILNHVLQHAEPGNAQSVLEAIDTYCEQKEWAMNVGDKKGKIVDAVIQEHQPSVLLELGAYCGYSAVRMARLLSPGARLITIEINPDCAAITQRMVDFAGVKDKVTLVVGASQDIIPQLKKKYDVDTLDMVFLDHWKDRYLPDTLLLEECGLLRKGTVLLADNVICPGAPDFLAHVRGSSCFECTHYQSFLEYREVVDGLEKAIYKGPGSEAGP
# TGF-β3 = conditions: human fibroid cells; cited from earlier work
# BMP2 gene = conditions: EGCG-treated human fibroid cells; cited from earlier work
smiles,measurement,setting,value
"O=C(O[C@@H]1Cc2c(O)cc(O)cc2O[C@@H]1c1cc(O)c(O)c(O)c1)c1cc(O)c(O)c(O)c1 [EGCG, epigallocatechin gallate]",concentration from which HuLM cells viability is effectively reduced,[1]; after 5 days treatment,≥ 50 µM
same,concentration from which HuLM cells viability is effectively reduced,[1]; after 7 days treatment,≥ 25 µM
same,fibroid tumor formation in vivo,fibroid tumor,inhibiting fibroid tumor formation
same,COMT inhibitor effect,[2],potent COMT inhibitor effect
same,TGF-β3 production,TGF-β3,significantly decreased
same,increase in the expression of the BMP2 gene versus untreated control,BMP2 gene,14 fold
